Measurements reported in patent US20110044938A1 (NYCOMED GMBH, priority 2006, published 2011).

Tests used:
[1] = test system: RKO (RKOp27) human colon adenocarcinoma cells; assay: Alamar Blue cell viability assay, anti-proliferative/cytotoxic activity on proliferating RKO subclones; format: cell-based; settings: RKOp27, 72 h, RKO p27 uninduced (proliferating) cells, value = class bound given in Table A, read-out: −logIC50 RKO p27 uninduced (proliferating) (converted)
Procedure, shortened: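 RKOp27 subclones (5000 cells/well) were exposed 24 h after seeding to semi-log compound dilutions in DMEM with 10% FCS, in quadruplicate, for 72 h at 37 °C. Viability was read by Alamar Blue fluorescence (544/590 nm) relative to untreated cells (1% DMSO medium). IC50 came from concentration-effect curves and is reported as −log IC50 [mol/l].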

[2] = test system: subclones of RKO colon adenocarcinoma cells (RKOp27 or RKOp21) arrested by Ponasterone A; assay: Alamar Blue cell viability assay, cell cycle specific mode of action: cells arrested by ectopic p27Kip1 induced by Ponasterone A versus proliferating cells; format: cell-based; settings: Homo sapiens, RKO p27 induced (arrested) cells, 10 μM Ponasterone A, 72 hours, value = class bound given in Table A, read-out: −logIC50 RKO p27 induced (arrested) (converted)
Procedure, shortened: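 RKOp27 or RKOp21 cells, 15000/well in DMEM/10% FCS, either arrested by p27Kip1 induced with 10 μM Ponasterone A or proliferating without inducer; compound added after 24 h, 72 h at 37° C. Alamar Blue fluorescence (544/590 nm), viability as % of untreated cells; −log IC50 reported.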

SMILES | IC50 [2] [nM] | IC50 [1] [nM]
CCOC(=O)OCC1CCc2c(sc(NC(=O)/C=C/c3cccnc3)c2C#N)C1 (stereo not drawn) [Example 8, Carbonic acid 3-cyano-2-((E)-3-pyridin-3-yl-allanoylamino)-4,5,6,7-tetrahydro-benzo[b]thiophen-6-ylmethyl ester ethyl ester] | ≥ 100000 | 501 to 2000
CN(C)c1ncc(CNC(=O)OCC2CCc3c(sc(NC(=O)/C=C/c4cccnc4)c3C#N)C2)s1 (stereo not drawn) [Example 140, (2-Dimethyl-amino-thiazol-5-ylmethyl)-carbamic acid 3-cyano-2-((E)-3-pyridin-3-yl-allanoylamino)-4,5,6,7-tetrahydro-benzo[b]thiophen-6-ylmethyl ester] | ≥ 100000 | ≤ 501
N#Cc1c(NC(=O)/C=C/c2cccnc2)sc2c1CCC(OC(=O)NCC1CCCO1)C2 (stereo not drawn) [Example 70, (Tetrahydro-furan-2-ylmethyl)-carbamic acid 3-cyano-2-((E)-3-pyridin-3-yl-allanoylamino)-4,5,6,7-tetrahydro-benzo[b]thiophen-6-yl ester] | ≥ 100000 | 501 to 2000
N#Cc1c(NC(=O)/C=C/c2cccnc2)sc2c1CCC(OC(=O)N1CCC(O)CC1)C2 (stereo not drawn) [Example 96, 4-Hydroxy-piperidine-1-carboxylic acid 3-cyano-2-((E)-3-pyridin-3-yl-allanoylamino)-4,5,6,7-tetrahydro-benzo[b]thiophen-6-yl ester] | ≥ 100000 | ≤ 501
N#Cc1c(NC(=O)/C=C/c2cccnc2)sc2c1CCC(COC(=O)NCC1CC1)C2 (stereo not drawn) [Example 105, Cyclopropylmethyl-carbamic acid 3-cyano-2-((E)-3-pyridin-3-yl-allanoylamino)-4,5,6,7-tetrahydro-benzo[b]thiophen-6-ylmethyl ester] | ≥ 100000 | ≤ 501
CN(C)C(=O)OC[C@H]1CCc2c(sc(NC(=O)/C=C/c3cccnc3)c2C#N)C1 [Example 74a, Dimethyl-carbamic acid (S)-3-cyano-2-((E)-3-pyridin-3-yl-allanoylamino)-4,5,6,7-tetrahydro-benzo[b]thiophen-6-ylmethyl ester] | ≥ 100000 | ≤ 501
CCOc1ccccc1CCC(=O)Nc1sc2c(c1C#N)CCC(OC(=O)NCc1ccnn1CC)C2 (stereo not drawn) [Example 209, (2-Ethyl-2H-pyrazol-3-ylmethyl)-carbamic acid 3-cyano-2-[3-(2-ethoxy-phenyl)-propanoylamino]-4,5,6,7-tetrahydro-benzo[b]thiophen-6-yl ester] | ≥ 100000 | ≤ 501
N#Cc1c(NC(=O)/C=C/c2cccnc2)sc2c1CCC(COC(=O)N1CCC(O)C1)C2 (stereo not drawn) [Example 75, 3-Hydroxy-pyrrolidine-1-carboxylic acid 3-cyano-2-((E)-3-pyridin-3-yl-allanoylamino)-4,5,6,7-tetrahydro-benzo[b]thiophen-6-ylmethyl ester] | ≥ 100000 | ≤ 501
COCCNC(=O)OC1CCc2c(sc(NC(=O)CCc3cccc(OC)c3)c2C#N)C1 (stereo not drawn) [Example 218, (2-Methoxy-ethyl)-carbamic acid 3-cyano-2-[3-(3-methoxy-phenyl)-propanoylamino]-4,5,6,7-tetrahydro-benzo[b]thiophen-6-yl ester] | ≥ 100000 | ≤ 501
COc1cccc(CCC(=O)Nc2sc3c(c2C#N)CCC(OC(=O)NCC2CCOCC2)C3)c1 (stereo not drawn) [Example 220] | ≥ 100000 | 501 to 2000
Cn1nccc1CNC(=O)OCC1CCc2c(sc(NC(=O)/C=C/c3cccnc3)c2C#N)C1 (stereo not drawn) [Example 46, (2-Methyl-2H-pyrazol-3-ylmethyl)-carbamic acid 3-cyano-2-((E)-3-pyridin-3-yl-allanoylamino)-4,5,6,7-tetrahydro-benzo[b]thiophen-6-ylmethyl ester] | ≥ 100000 | ≤ 501
CCOc1ccccc1/C=C/C(=O)Nc1sc2c(c1C#N)CCC(OC(=O)NCCOC)C2 (stereo not drawn) [Example 12, (2-Methoxy-ethyl)-carbamic acid 3-cyano-2-[(E)-3-(2-ethoxy-phenyl)-allanoylamino]-4,5,6,7-tetrahydro-benzo[b]thiophen-6-yl ester] | ≥ 50100 | ≤ 501
Cc1nn(C)cc1CNC(=O)OC1CCc2c(sc(NC(=O)/C=C/c3cccnc3)c2C#N)C1 (stereo not drawn) [Example 57, (1,3-Dimethyl-1H-pyrazol-4-ylmethyl)-carbamic acid 3-cyano-2-((E)-3-pyridin-3-yl-allanoylamino)-4,5,6,7-tetrahydro-benzo[b]thiophen-6-yl ester] | ≥ 100000 | ≤ 501
CCOc1ccccc1CCC(=O)Nc1sc2c(c1C#N)CCC(COC(=O)N1CCCC1)C2 (stereo not drawn) [Example 201, Pyrrolidine-1-carboxylic acid 3-cyano-2-[3-(2-ethoxy-phenyl)-propanoylamino]-4,5,6,7-tetrahydro-benzo[b]thiophen-6-ylmethyl ester] | ≥ 100000 | ≤ 501
CC(CO)NC(=O)OCC1CCc2c(sc(NC(=O)/C=C/c3cccnc3)c2C#N)C1 (stereo not drawn) [Example 102, (2-Hydroxy-1-methyl-ethyl)-carbamic acid 3-cyano-2-((E)-3-pyridin-3-yl-allanoylamino)-4,5,6,7-tetrahydro-benzo[b]thiophen-6-ylmethyl ester] | ≥ 100000 | 501 to 2000
CCOc1ccccc1CCC(=O)Nc1sc2c(c1C#N)CCC(COC(=O)NCc1cn(C)cn1)C2 (stereo not drawn) [Example 178, (1-Methyl-1H-imidazol-4-ylmethyl)-carbamic acid 3-cyano-2-[3-(2-ethoxy-phenyl)-propanoylamino]-4,5,6,7-tetrahydro-benzo[b]thiophen-6-ylmethyl ester] | ≥ 50100 | ≤ 501

Now from value to molecule, other results behind:

IC50 [2] [nM] | SMILES | IC50 [1] [nM]
≥ 10000 | COc1cccc(C(C)CC(=O)Nc2sc3c(c2C#N)CCC(COC(=O)NCc2cnn(C)c2)C3)c1 (stereo not drawn) [Example 333, (1-Methyl-1H-pyrazol-4-ylmethyl)-carbamic acid 3-cyano-2-[3-(3-methoxy-phenyl)-butanoylamino]-4,5,6,7-tetrahydro-benzo[b]thiophen-6-ylmethyl ester] | 501 to 2000
≥ 50100 | COc1cccc(CCC(=O)Nc2sc3c(c2C#N)CCC(OC(=O)NCCn2ccnc2)C3)c1 (stereo not drawn) [Example 263, (2-Imidazol-1-yl-ethyl)-carbamic acid 3-cyano-2-[3-(3-methoxy-phenyl)-propanoylamino]-4,5,6,7-tetrahydro-benzo[b]thiophen-6-yl ester] | ≤ 501
≥ 100000 | COc1cccc(CCC(=O)Nc2sc3c(c2C#N)CCC(OC(=O)NCC2CCCO2)C3)c1 (stereo not drawn) [Example 225, (Tetrahydro-furan-2-ylmethyl)-carbamic acid 3-cyano-2-[3-(3-methoxy-phenyl)-propanoylamino]-4,5,6,7-tetrahydro-benzo[b]thiophen-6-yl ester] | 501 to 2000
≥ 50100 | COc1cccc(C(C)CC(=O)Nc2sc3c(c2C#N)CCC(COC(=O)NCCc2cccnc2)C3)c1 (stereo not drawn) [Example 327, (2-Pyridin-3-yl-ethyl)-carbamic acid 3-cyano-2-[3-(3-methoxy-phenyl)-butanoylamino]-4,5,6,7-tetrahydro-benzo[b]thiophen-6-ylmethyl ester] | 501 to 2000
≥ 10000 | CC(CC(=O)Nc1sc2c(c1C#N)CCC(OC(=O)NCc1nccn1C)C2)c1ccccc1 (stereo not drawn) [Example 292, (1-Methyl-1H-imidazol-2-ylmethyl)-carbamic acid 3-cyano-2-(3-phenyl-butanoylamino)-4,5,6,7-tetrahydro-benzo[b] thiophen-6-yl ester] | 501 to 2000
≥ 100000 | COC(=O)OCC1CCc2c(sc(NC(=O)CCc3cccc(OC)c3)c2C#N)C1 (stereo not drawn) [Example 255, Carbonic acid 3-cyano-2-[3-(3-methoxy-phenyl)-propanoylamino]-4,5,6,7-tetrahydro-benzo[b]thiophen-6-ylmethyl ester methyl ester] | 501 to 2000
≥ 50100 | CCn1nccc1CNC(=O)OC1CCc2c(sc(NC(=O)CC(C)c3ccccc3)c2C#N)C1 (stereo not drawn) [Example 303, (2-Ethyl-2H-pyrazol-3-ylmethyl)-carbamic acid 3-cyano-2-(3-phenyl-butanoylamino)-4,5,6,7-tetrahydro-benzo[b] thiophen-6-yl ester] | ≤ 501
≥ 100000 | Cc1nocc1CNC(=O)OCC1CCc2c(sc(NC(=O)CC(C)c3ccccc3)c2C#N)C1 (stereo not drawn) [Example 352, (3-Methyl-isoxazol-4-ylmethyl)-carbamic acid 3-cyano-2-(3-phenyl-butanoylamino)-4,5,6,7-tetrahydro-benzo[b]thiophen-6-ylmethyl ester] | ≤ 501
≥ 50100 | CC(CC(=O)Nc1sc2c(c1C#N)CCC(COC(=O)NCC1CCCO1)C2)c1ccccc1 (stereo not drawn) [Example 315, (Tetrahydrofuran-2-ylmethyl)-carbamic acid 3-cyano-2-(3-phenyl-butanoylamino)-4,5,6,7-tetrahydro-benzo[b]thiophen-6-ylmethyl ester] | 501 to 2000
≥ 100000 | CC(CC(=O)Nc1sc2c(c1C#N)CCC(COC(=O)NCc1ccno1)C2)c1ccccc1 (stereo not drawn) [Example 353, Isoxazol-5-ylmethyl-carbamic acid 3-cyano-2-(3-phenyl-butanoylamino)-4,5,6,7-tetrahydro-benzo[b] thiophen-6-ylmethyl ester] | ≤ 501
≥ 100000 | COCCNC(=O)OCC1CCc2c(sc(NC(=O)CCc3cccc(OC)c3)c2C#N)C1 (stereo not drawn) [Example 234, (2-Methoxy-ethyl)-carbamic acid 3-cyano-2-[3-(3-methoxy-phenyl)-propanoylamino]-4,5,6,7-tetrahydro-benzo[b]thiophen-6-ylmethyl ester] | ≤ 501
